A short description of data set [1]: Plasma pharmacokinetics in mice after oral administration. The conditions noted are these: mouse, male C57/Bl6 mice, oral 10 mg/kg; for AUC: sampling 15 min to 7 h, log-linear trapezoidal method, read-out: AUCplasma; for Cmax: suspension in 1% methylcellulose/0.1% Poloxamer 188. In kind it is in vivo. The method in brief: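 Male C57/B16 mice (25-30 g, fed, 9 per dose) received 10 mg/kg by oral gavage as a suspension in 1% methylcellulose 400 cps/0.1% Poloxamer 188/water. Plasma was sampled at 15 min, 30 min, 1 h, 3 h and 7 h and quantified by LC-MS/MS after protein precipitation. Parameters were derived non-compartmentally, with AUC by the log-linear trapezoidal method.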

Data set [2] concerns the target T1, NURR-1/RXRγ (Homo sapiens, UniProt P48443).
T1 construct: expressed in transfected cells; host or cells: Cos-7 cells
Kind of data set: Transactivation test, NURR-1-Gal4/RXRγ, luciferase reporter in Cos-7 cells. The conditions noted are these: for Emax: COS-7, induction level relative to reference XCT0135908 at 2×10^−5 M (=100%), read-out: hNurr1_RXRgFL Emax (%); for pEC50: Cos-7 cells, NURR-1-Gal4/RXRγ, luciferase reporter, read-out: hNurr1_RXRgFL EC50. In kind it is cell-based. (In general: In a reporter assay the amount or activity of a reporter protein is the signal.)

For data set [3], the target named is T2, NURR-1/RXRα (Homo sapiens, UniProt P19793).
T2 construct: expressed in transfected cells; host or cells: Cos-7 cells
T2 sequence (P19793 whole entry): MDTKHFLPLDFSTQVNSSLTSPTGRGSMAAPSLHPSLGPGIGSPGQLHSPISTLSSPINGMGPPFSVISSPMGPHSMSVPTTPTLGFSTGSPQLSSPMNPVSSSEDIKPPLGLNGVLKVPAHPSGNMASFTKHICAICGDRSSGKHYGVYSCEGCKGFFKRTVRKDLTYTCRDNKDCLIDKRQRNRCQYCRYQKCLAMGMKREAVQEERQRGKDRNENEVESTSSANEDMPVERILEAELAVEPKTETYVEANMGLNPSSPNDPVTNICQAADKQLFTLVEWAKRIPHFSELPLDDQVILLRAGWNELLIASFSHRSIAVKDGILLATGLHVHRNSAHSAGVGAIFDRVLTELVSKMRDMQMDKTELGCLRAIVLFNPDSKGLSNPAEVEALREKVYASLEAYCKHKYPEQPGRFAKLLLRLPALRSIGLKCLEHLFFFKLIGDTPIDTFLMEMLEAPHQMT
T2 sequence (P43354 whole entry partner): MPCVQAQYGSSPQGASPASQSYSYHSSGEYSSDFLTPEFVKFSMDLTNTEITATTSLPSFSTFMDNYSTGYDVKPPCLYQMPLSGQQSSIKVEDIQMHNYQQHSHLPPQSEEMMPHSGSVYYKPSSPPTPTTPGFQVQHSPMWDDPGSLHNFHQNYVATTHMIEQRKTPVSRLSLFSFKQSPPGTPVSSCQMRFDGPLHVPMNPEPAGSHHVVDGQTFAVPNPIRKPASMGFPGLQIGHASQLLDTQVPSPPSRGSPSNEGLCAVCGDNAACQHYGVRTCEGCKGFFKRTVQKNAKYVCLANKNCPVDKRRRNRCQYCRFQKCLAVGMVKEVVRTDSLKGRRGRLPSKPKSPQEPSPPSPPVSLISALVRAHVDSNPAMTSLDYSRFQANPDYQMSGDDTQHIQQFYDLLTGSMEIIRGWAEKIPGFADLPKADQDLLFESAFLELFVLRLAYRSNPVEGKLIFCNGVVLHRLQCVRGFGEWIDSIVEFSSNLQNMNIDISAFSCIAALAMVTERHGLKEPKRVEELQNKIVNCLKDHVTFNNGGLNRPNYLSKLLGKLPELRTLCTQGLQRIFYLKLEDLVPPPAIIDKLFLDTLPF
T2 sequence (P04386 1-147 partner limits assumed): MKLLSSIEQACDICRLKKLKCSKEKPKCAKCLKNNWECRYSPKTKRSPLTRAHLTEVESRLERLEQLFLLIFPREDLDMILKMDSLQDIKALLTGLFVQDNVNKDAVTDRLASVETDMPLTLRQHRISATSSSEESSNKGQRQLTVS
Kind of data set: Transactivation test, NURR-1-Gal4/RXRα, luciferase reporter in Cos-7 cells. In kind it is cell-based. The conditions noted are these: for Emax: COS-7, induction level relative to reference XCT0135908 at 2×10^−5 M (=100%), read-out: hNurr1_RXRaFL Emax (%); for pEC50: Cos-7 cells, NURR-1-Gal4/RXRα, luciferase reporter, read-out: hNurr1_RXRaFL EC50.

Data set [4] in a line: Brain penetration in rats after intravenous administration. In kind it is in vivo. The conditions noted are these: rat; for Kp at 4 h: male, Wistar, intravenous, 4 mg/kg, ratio of Cmax brain to Cmax plasma after the 4 hours of infusion, rats, read-out: Kp (partition coefficient between the brain and the plasma); for Cmax at 4 h: male Wistar rats, 4 mg/kg iv infusion into the jugular vein for 4 hours, plasma at end of infusion. The method in brief: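 Male Wistar rats (250-300 g, fed, n=4) received test compound by 4-hour jugular vein infusion at 4 mg/kg in 2% Cremophor EL/0.9% NaCl. At the end of infusion, plasma and brain homogenate were analysed by LC-MS/MS; Kp is the brain-to-plasma concentration ratio after 4 hours.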

Data set [5] relates to dopaminergic neurons of primary culture of rat embryo mesencephalon treated with MPP+. Briefly: Neuroprotection in primary culture of rat embryo mesencephalon treated with MPP+ (count of tyrosine hydroxylase expressing cells). In kind it is cell-based. The conditions noted are these: recombinant human BDNF 10 ng/mL = 100%, 2 days with MPP+. The method in brief: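 Rat embryo (E15) mesencephalon cultures, 5 days, then MPP+ with or without compound on day 6 for 2 days. Tyrosine hydroxylase-immunolabelled cells counted by image analysis; activity expressed as percent of recombinant human BDNF (10 ng/mL) reference, set at 100%.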

Molecules are shown by their SMILES. pEC50: −log10 of the molar value.

T1 sequence (P48443 whole entry): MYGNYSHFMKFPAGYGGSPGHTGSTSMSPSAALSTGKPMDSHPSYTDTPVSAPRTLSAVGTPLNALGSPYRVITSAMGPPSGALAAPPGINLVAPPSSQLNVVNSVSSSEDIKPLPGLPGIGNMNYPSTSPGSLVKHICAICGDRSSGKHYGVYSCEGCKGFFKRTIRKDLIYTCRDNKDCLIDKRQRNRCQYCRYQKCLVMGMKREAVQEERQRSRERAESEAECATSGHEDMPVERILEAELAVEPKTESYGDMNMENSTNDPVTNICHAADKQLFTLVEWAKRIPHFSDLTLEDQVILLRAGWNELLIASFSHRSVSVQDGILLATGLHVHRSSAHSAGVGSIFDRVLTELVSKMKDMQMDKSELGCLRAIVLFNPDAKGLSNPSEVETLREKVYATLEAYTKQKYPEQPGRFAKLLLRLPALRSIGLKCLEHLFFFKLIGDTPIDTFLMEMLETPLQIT
T1 sequence (P43354 whole entry partner): as the sequence (P43354 whole entry partner) above
T1 sequence (P04386 1-147 partner limits assumed): as the sequence (P04386 1-147 partner limits assumed) above

With `CN(C)Cc1cn(-c2cccc(N3CC(C(=O)O)C3)c2)c2ccc(C(F)(F)F)cc12` [Example 130, 1-[3-[3-(dimethylaminomethyl)-5-(trifluoromethyl)indol-1-yl]phenyl]azetidine-3-carboxylic acid], in data set [1], the AUC came to 23000 ng·h/mL and the highest level (Cmax) was 13800 ng/mL. In data set [2], the Emax amounted to 109% and the pEC50 is 6.29. Besides, in data set [3], the Emax came out at 113% and the pEC50 was 6.61. Besides, in data set [4], the Kp at 4 h is 0.13 and the Cmax at 4 h was 9010 ng/mL. Also, the “percentage of activity relative to the BDNF reference” value in data set [5] (compound 1 μM) is listed as 57%. Moreover, in data set [5] (compound 10 μM), the “percentage of activity relative to the BDNF reference” value is on record as 103%.

On to `O=C(O)C1CN(c2cccc(N3c4ccc(C(F)(F)F)cc4CC3Cc3ccccc3)c2)C1` (centres unmarked) [Example 147, 1-[3-[2-benzyl-5-(trifluoromethyl)indolin-1-yl]phenyl]azetidine-3 carboxylic acid], for which, in data set [1], the AUC is 143000 ng·h/mL and the Cmax amounted to 33000 ng/mL. Also, in data set [2], the maximal effect (Emax) turned out to be 50% and the pEC50 was 7.06. Also, in data set [3], the maximum response (Emax) came out at 68% and the pEC50 is 7.36. In data set [4], the Kp at 4 h turned out to be 0.12 and the Cmax at 4 h stood at 7910 ng/mL. In addition, the “percentage of activity relative to the BDNF reference” value in data set [5] (compound 1 μM) is 53%. For the same molecule, the “percentage of activity relative to the BDNF reference” value in data set [5] (compound 10 μM) is reported as 104%.

One may read the Cmax as the highest concentration seen after dosing. By Emax is commonly meant the maximal effect, on the per cent scale that the assay sets. Usually pEC50 stands for the EC50 on a negative log10 scale, so that one unit is a factor of ten. As usually defined, the Kp is tissue or fluid exposure divided by exposure in the circulation.
